{"source": "patent US20030228375A1", "about": "(priority 2002, published 2003)", "origin": "cited, not measured here", "key": {"[1]": {"details": "supplementation"}, "[2]": {"test_system": "people with panhypopituitarism"}, "hypogonadal men": {"test_system": "hypogonadal men", "details": "for waking erection: Asian group; for sexual interest and activity, spontaneous erection: Caucasian group"}, "[3]": {"test_system": "prostate and seminal vesicle weights"}, "aromatase": {"molecular_target": "T1, aromatase (Homo sapiens, UniProt P11511)", "T1 sequence (P11511 1-503)": "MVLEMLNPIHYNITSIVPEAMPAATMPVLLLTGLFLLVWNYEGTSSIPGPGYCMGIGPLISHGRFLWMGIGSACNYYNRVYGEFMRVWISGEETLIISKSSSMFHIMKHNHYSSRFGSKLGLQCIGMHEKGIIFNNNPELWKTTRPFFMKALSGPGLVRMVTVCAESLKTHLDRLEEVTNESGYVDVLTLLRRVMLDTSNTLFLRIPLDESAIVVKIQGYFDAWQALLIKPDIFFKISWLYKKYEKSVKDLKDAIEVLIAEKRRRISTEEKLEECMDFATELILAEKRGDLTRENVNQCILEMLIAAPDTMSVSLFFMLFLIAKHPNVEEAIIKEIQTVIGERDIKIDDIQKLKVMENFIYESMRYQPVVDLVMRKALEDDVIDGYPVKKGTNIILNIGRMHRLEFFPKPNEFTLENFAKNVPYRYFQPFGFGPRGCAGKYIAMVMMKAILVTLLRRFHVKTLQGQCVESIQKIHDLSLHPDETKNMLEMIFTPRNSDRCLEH", "details": "compared with chrysin, AG and ANG"}, "healthy young men": {"test_system": "healthy young men", "details": "300 mg/wk for six weeks; TE shoulders, ND shoulders and chest"}, "HIV-infected men": {"test_system": "HIV-infected men", "details": "pharmacological doses"}, "[4]": {"details": "body builders"}, "[5]": {"details": "nandrolone use"}, "patients on dialysis": {"test_system": "patients on dialysis", "details": "compared with placebo"}, "[6]": {"details": "supplementation", "remark": "listed apart in the source"}, "[7]": {"details": "in vivo"}}, "note": "Like-named read-outs stand apart in the source and are kept apart here."}
{"smiles": "C[C@]12CCC(=O)C=C1CC[C@@H]1[C@@H]2CC[C@]2(C)C(=O)CC[C@@H]12", "note": "[4-androstenedione]", "values": [{"measurement": "serum testosterone", "setting": "[1]", "result": "elevations in serum testosterone"}]}
{"smiles": "C[C@]12CC[C@H](O)CC1=CC[C@@H]1[C@@H]2CC[C@]2(C)C(=O)CC[C@@H]12", "note": "[DHEA, dehydro-epiandrosterone]", "values": [{"measurement": "plasma testosterone", "setting": "[2]; 50 mg dose", "result": "restored plasma testosterone to levels similar to those observed in young women"}, {"measurement": "plasma estrogens, particularly estradiol", "setting": "[2]; 50 mg or 200 mg", "result": "significant and dose dependent increase"}, {"measurement": "plasma testosterone", "setting": "[2]; 200 mg dose", "result": "slightly below the levels observed in normal men"}]}
{"smiles": "C[C@@H]1CC2=CC(=O)CC[C@@H]2[C@H]2CC[C@]3(C)[C@@H](O)CC[C@H]3[C@@H]21", "note": "[MENT, 7α-methyl-19-nor-testosterone]", "values": [{"measurement": "waking erection", "setting": "hypogonadal men", "result": "increased waking erection"}, {"measurement": "sexual interest and activity, spontaneous erection", "setting": "hypogonadal men", "result": "significant increases"}, {"measurement": "androgenic potency relative to testosterone", "setting": "[3]", "result": "four- to five-times more androgenic than testosterone"}, {"measurement": "anabolic potency relative to testosterone", "setting": "levator ani muscles", "result": "ten-times as potent as testosterone"}]}
{"smiles": "COc1ccc(-c2coc3cc(O)cc(O)c3c2=O)cc1", "note": "[Biochanin A, 5,7-dihydroxy-4′-methoxyisoflavone]", "values": [{"measurement": "aromatase inhibition", "setting": "aromatase", "result": "inhibited aromatase, but to a lesser degree"}]}
{"smiles": "CCCCCCCCCC(=O)O[C@H]1CC[C@H]2[C@@H]3CCC4=CC(=O)CC[C@@H]4[C@H]3CC[C@]12C", "note": "[ND, 19-nor-testosterone decanoate]", "values": [{"measurement": "body circumferences (of fifteen)", "setting": "healthy young men", "result": "significant increases"}, {"measurement": "total weight, lean body mass, body cell mass, muscle size and strength", "setting": "HIV-infected men", "result": "significant gains"}]}
{"smiles": "C[C@]12CC[C@H]3[C@@H](CC=C4C[C@@H](O)CC[C@@]43C)[C@@H]1CC[C@@H]2O", "note": "[5-androstenediol]", "values": [{"measurement": "proportion of protein in the body composition", "setting": "young female rats", "result": "increased the proportion of protein"}]}
{"smiles": "C[C@]12CC[C@H]3[C@@H](CCC4=CC(=O)CC[C@@H]43)[C@@H]1CC[C@@H]2O", "note": "[nandrolone, 19-nor-testosterone]", "values": [{"measurement": "decrease in HDL-cholesterol", "setting": "[4]", "result": "25-27%"}, {"measurement": "effect on sperm", "setting": "[5]", "result": "azoospermia"}, {"measurement": "lean body mass", "setting": "patients on dialysis", "result": "increased significantly"}, {"measurement": "energy expenditure", "setting": "young female rats", "result": "increased energy expenditure"}]}
{"smiles": "CCCCCCC(=O)O[C@H]1CC[C@H]2[C@@H]3CCC4=CC(=O)CC[C@]4(C)[C@H]3CC[C@]12C", "note": "[TE, testosterone enanthate]", "values": [{"measurement": "body circumferences (of fifteen)", "setting": "healthy young men", "result": "significant increases"}, {"measurement": "waking erection", "setting": "hypogonadal men", "result": "increased waking erection"}, {"measurement": "sexual interest and activity, spontaneous erection", "setting": "hypogonadal men", "result": "significant increases"}]}
{"smiles": "C[C@]12CC[C@H]3[C@@H](CCC4=C[C@@H](O)CC[C@@]43C)[C@@H]1CC[C@@H]2O", "note": "[4-androstenediol]", "values": [{"measurement": "urine testosterone concentration relative to 4-androstenedione", "setting": "[6]", "result": 10, "unit": "fold"}, {"measurement": "human serum testosterone levels", "setting": "[7]", "result": "elevations in human serum testosterone levels"}]}
{"smiles": "C[C@]12CC[C@H]3[C@@H](CCC4=CC(=O)CC[C@@]43C)[C@@H]1CC[C@@H]2O", "note": "[testosterone]", "values": [{"measurement": "proportion of protein in the body composition", "setting": "young female rats", "result": "increased the proportion of protein"}]}
